Measured values taken from patent US11370761B2, “Voltage-dependent T-type calcium channel inhibitor” (Nippon Chemiphar Co., Ltd., priority 2017, dated 2022).
pIC50: −log10 of the molar value.

Columns and labels:
[1] = system: mouse partial sciatic nerve ligation (PSNL) model; experiment: Mechanical allodynia in mouse partial sciatic nerve ligation (PSNL) model, von Frey filament test (Pharmacological Test 3); type: in vivo; conditions: 30 mg/kg orally administered
Protocol: A mouse PSNL model was prepared according to a method of Seltzer et al. A mouse was anesthetized by inhalation with isoflurane. A femoral region of the mouse was shaved and disinfected with isodine. Skin on a femur of the mouse was incised, fascia just below the skin was cut off, and muscle heads of musculus biceps femoris were divided. After confirmation of sciatic nerves just below the muscle, and the sciatic nerves were separated without damage. ½ to ⅓ of the sciatic nerve was penetrated by a needle with 8-0 silk and ligated. The skin was sutured and the mouse was reared for about 7 days. In surgery of a sham control mouse, only confirmation of the sciatic nerves was performed and then the skin was sutured.
A pain threshold was measured after moving the mice to a cage for measurement and waiting for the exploratory behavior to disappear. Regarding the pain threshold (paw withdrawal filament ((g)), soles of the mice were stimulated with von Frey filaments (Sttoelting Co.: TOUCH-TEST SENSORY EVLUATOR) having different stimulation intensities, and the presence or absence of avoidance response was observed. A 50% threshold was calculated by an up down method with reference to a method of Chaplan et al. (Quantitative assessment of tactile allodynia in the rat paw. J neurosci Methods, 53, 1994, 55 to 63). […]

human Cav3.2 channel [2] = biological target: T1, human Cav3.2 channel (Homo sapiens, UniProt O95180); experiment: Intracellular calcium concentration measurement in human Cav3.2 channel expressing stable cell line (Pharmacological Test 1); type: cell-based; conditions: HEK293 cells stably expressing human Cav3.2, Fluo-4 AM fluorescence, KCl stimulation; read-out: Cav3.2 channel inhibitory action
T1 construct: expressed in transfected cells
Outline: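 HEK293 cells stably expressing human Cav3.2 were loaded with Fluo-4 AM for 45 min, then preincubated 15 min at room temperature with compound (0.1% DMSO) in B buffer (K+ equilibrium potential −92 mV). After ionophore addition, cells were depolarized with 83.8 mM KCl and calcium influx was read for 10 s (ex 485/em 510 nm). IC50 was fitted from maximal fluorescence increase over baseline.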

human Cav3.2 channel [3] = biological target: T1, human Cav3.2 channel; experiment: Electrophysiological evaluation, automated whole-cell patch clamp of Cav3.2 channel current (Pharmacological Test 2); type: cell-based; conditions: for inhibition at 0.3 µM: 0.3 μM test compound, holding potential −80 mV, depolarization to −20 mV, read-out: Cav3.2 channel current inhibition rate in test compound of 0.3 μM (holding potential of −80 mV) (%)
Protocol: The human Cav3.2 channel expressing stable cell line prepared by the test method (1) of Example 36 was seeded in a 10-cm dish using a DMEM medium containing 10% FBS, followed by culturing 37° C. for 24 hours under a 5% CO2 condition. The cells were detached using Accutase, and suspended in ice-cooled extracellular fluid for use. A Cav3.2 channel current was measured using an automated patch clamp system (Port-a-Patch; Nanion Technologies, EPC-10; HEKA Elektronik GmbH, Patchmaster; HEKA Elektronik GmbH) and buffers shown below, by a whole-cell patch-clamp method. The measurement of the Cav3.2 channel current was performed at room temperature, a measurement condition was a holding potential of −80 mV, a depolarization potential was −20 mV, a depolarization time was 100 msec, and a depolarization frequency was 10 sec. The Cav3.2 channel current was a peak value of an inward current observed at the time of depolarization to −20 mV.
The test compound was obtained by diluting a DMSO solution 1000 times with extracellular fluid to prepare a solution having a target concentration. The test compound was applied using an external perfusion system (Nanion Technologies) until the Cav3.2 channel current was stabilized, and a maximum of five concentrations from the low concentration side were cumulatively applied. An inhibition rate of the test compound was calculated from a change rate between a current value immediately before application of the test compound and the Cav3.2 channel current after application of the test compound (in a condition of holding potential of −80 mV, a concentration of the test compound was 0.3 μM, and in a condition of holding potential of −100 mV, a concentration of the test compound was 3 μM).
Extracellular fluid: 135 mM NaCl, 4 mM KCl, 1 mM MgCl2, 5 mM CaCl2, 5 mM D-Glucose, 10 mM HEPES, pH 7.4
Electrode internal fluid: 10 mM NaCl, 10 mM HEPES, 50 mM CsCl, 60 mM Cs-Fluoride, 20 mM EGTA, pH 7.2

T1 sequence (O95180 whole entry): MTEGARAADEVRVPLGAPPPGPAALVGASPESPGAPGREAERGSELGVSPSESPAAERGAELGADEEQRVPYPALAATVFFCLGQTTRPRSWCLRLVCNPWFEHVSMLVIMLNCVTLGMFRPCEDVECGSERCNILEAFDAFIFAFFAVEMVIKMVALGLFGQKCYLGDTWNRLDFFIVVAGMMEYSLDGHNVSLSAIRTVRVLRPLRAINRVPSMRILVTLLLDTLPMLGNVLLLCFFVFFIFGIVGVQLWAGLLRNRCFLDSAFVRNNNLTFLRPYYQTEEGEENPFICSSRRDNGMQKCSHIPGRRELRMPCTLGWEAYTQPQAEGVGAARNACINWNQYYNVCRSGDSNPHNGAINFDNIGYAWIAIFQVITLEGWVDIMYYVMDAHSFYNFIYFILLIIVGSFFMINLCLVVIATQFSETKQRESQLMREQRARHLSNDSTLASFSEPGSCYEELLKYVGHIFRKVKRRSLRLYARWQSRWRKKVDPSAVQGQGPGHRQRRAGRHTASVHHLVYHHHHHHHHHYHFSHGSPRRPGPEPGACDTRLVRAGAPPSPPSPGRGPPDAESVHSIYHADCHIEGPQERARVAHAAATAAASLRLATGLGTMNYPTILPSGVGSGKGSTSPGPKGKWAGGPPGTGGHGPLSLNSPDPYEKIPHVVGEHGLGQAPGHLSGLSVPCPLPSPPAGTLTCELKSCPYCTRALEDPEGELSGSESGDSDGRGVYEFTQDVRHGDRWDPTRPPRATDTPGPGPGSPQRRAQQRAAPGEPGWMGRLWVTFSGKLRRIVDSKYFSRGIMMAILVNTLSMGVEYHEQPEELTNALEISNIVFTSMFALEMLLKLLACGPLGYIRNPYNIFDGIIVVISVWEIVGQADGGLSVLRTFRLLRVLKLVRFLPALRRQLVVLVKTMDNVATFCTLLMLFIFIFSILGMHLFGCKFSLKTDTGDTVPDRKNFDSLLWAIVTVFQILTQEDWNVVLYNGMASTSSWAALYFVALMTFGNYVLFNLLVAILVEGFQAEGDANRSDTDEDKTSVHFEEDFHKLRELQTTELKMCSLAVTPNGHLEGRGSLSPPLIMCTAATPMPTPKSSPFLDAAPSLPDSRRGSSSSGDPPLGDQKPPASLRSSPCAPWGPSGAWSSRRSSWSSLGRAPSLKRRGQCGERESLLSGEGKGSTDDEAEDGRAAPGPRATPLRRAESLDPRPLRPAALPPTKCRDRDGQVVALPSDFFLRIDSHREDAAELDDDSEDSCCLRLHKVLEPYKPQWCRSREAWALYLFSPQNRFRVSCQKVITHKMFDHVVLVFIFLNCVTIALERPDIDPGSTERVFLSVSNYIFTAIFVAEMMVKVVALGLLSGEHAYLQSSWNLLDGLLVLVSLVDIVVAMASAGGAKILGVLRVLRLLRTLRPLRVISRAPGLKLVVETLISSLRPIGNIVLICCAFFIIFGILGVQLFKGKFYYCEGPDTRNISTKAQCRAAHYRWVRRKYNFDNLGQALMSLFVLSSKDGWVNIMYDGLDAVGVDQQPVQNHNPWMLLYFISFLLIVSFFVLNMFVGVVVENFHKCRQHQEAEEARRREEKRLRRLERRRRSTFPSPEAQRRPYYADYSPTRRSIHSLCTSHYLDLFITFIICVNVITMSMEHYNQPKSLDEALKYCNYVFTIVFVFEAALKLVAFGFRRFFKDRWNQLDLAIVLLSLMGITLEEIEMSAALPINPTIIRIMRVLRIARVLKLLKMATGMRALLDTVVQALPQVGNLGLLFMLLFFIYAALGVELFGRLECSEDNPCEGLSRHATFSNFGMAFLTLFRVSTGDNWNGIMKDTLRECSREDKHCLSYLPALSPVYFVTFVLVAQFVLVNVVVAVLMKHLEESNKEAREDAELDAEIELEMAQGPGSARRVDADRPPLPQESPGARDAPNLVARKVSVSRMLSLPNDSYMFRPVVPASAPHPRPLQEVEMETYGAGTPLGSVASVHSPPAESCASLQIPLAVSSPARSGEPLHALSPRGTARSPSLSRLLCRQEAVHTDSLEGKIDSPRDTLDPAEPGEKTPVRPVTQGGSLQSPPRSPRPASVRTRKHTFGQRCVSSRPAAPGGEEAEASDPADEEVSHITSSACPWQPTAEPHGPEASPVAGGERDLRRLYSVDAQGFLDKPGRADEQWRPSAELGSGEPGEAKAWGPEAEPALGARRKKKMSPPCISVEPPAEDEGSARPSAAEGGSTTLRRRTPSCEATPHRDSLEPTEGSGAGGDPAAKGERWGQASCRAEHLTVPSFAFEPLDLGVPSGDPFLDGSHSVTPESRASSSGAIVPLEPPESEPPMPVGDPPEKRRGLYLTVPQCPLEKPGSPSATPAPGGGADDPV

Compound | mechanical allodynia (pain threshold, von Frey filament test) compared to the vehicle group [1] | pIC50 (human Cav3.2 channel [2]) | inhibition at 0.3 µM (human Cav3.2 channel [3]) | inhibition at 3 µM (human Cav3.2 channel [3]; 3 μM test compound, holding potential −100 mV, read-out: Cav3.2 channel current inhibition rate in test compound of 3 μM (holding potential of −100 mV) (%))
O=C(NC1(C(=O)Nc2ccc(C(F)(F)F)cc2)CC1)[C@H]1C[C@@H]1c1nc2ccccc2[nH]1 [Example 26, 1-((1S, 2S)-2-(1H-Benzo[d]imidazol-2-yl)cyclopropane-1-carboxamido)-N-(4-(trifluoromethyl)phenyl) cyclopropane-1-carboxamide] | statistically significantly suppressed | ≥ 7.00 | 84% | –
CC(NC(=O)C1CC1c1nc2ccccc2[nH]1)C(=O)Nc1ccc(C(F)(F)F)nc1 (single isomer, unassigned) [Example 5A, Trans-2-(1H-benzo[d]imidazol-2-yl)-N-(1-oxo-1-((6-(trifluoromethyl)pyridin-3-yl)amino)propan-2-yl) cyclopropane-1-carboxamide] | statistically significantly suppressed | 6.00 to 7.00 | 74% | 32%
CC(NC(=O)C1CC1c1nc2ccccc2[nH]1)C(=O)Nc1cnc(Br)cn1 (single isomer, unassigned) [Example 18A, Trans-2-(1H-benzo[d]imidazol-2-yl)-N-(1-((5-bromopyrazin-2-yl)amino)-1-oxopropan-2-yl) cyclopropane-1-carboxamide] | – | 6.00 to 7.00 | 46% | –
